One test addresses KRAS G12C (Homo sapiens (Human), UniProt P01116, C118A/G12C). The experiment in a line: 2 h coupled exchange assay. The format is biochemical. The conditions noted are these: Avg 2 h Coupled exchange IC50, 2 h compound pre-incubation. The protocol: The term “2 h coupled exchange assay” or “20 h coupled exchange assay” as used herein refers to the assay described in the Section entitled “BIOLOGICAL EVALUATION.”

The test system of test [1] is MIA PaCa-2 (human pancreatic carcinoma) cells. The test is described as follows: Cell Viability Assay (CellTiter-Glo), MIA PaCa-2. The test is classed as cell-based. Here is the method:
Serially-diluted compound or DMSO was added to the cells, and plates were incubated at 37° C., 5% CO2 for 72 h. Cell viability was measured using a CellTiter-Glo® Luminescent Cell Viability Assay kit (Promega) according to the manufacturer's protocol. The luminescence signal of treated samples was normalized to DMSO control, and data were analyzed using a 4-parameter logistic model to calculate IC50 values.
For orientation: In ATP-based viability assays light output follows the ATP content of the culture.

The subject of test [2] is A549 (human lung carcinoma) cells. The experiment in a line: Cell Viability Assay (CellTiter-Glo), A549. The format is cell-based. In outline:
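After a 72 h exposure to serial compound dilutions at 37° C, luminescent ATP content was measured with CellTiter-Glo. The cells were A549 or MIA PaCa-2, seeded at 1.67E+04 cells/mL in RPMI 1640 with 10% serum. Signals were normalized to DMSO controls and IC50 fitted with a 4-parameter logistic model.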

The mark [3] stands for this setting: SOS-mediated nucleotide exchange.

The term IC50 denotes the midpoint of a concentration-inhibition curve.

Chain of KRAS G12C (P01116 other isoform, or with tags, fused parts or gaps G12C/C118A): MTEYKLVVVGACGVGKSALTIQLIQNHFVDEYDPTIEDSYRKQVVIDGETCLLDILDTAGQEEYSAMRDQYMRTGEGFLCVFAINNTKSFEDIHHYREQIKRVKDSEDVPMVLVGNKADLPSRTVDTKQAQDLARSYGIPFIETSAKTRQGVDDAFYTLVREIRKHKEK

`C=CC(=O)N1CC2(CCN(c3nc4c(c(-c5ccccc5F)c3C#N)CCN(c3nccn3C)C4)C2)C1` [Example 34-1, 4-(2-fluorophenyl)-7-(1-methyl-1H-imidazol-2-yl)-2-(2-(2-propenoyl)-2,6-diazaspiro[3.4]octan-6-yl)-5,6,7,8-tetrahydro-1,7-naphthyridine-3-carbonitrile]: the IC50 at KRAS G12C was found to be 0.814 µM; in test [1] (Homo sapiens, MIA PaCa-2, 72 h) it was 3.51 µM; in test [2] (Homo sapiens, A549, 72 h) it was 14.1 µM.
`C=CC(=O)N1CC2(CCN(c3nc4c(c(-c5cc(O)ccc5C)c3Cl)COC(C)(C)C4)C2)C1` (single isomer, unassigned) [Example 2-81, (P)-1-(6-(3-chloro-4-(5-hydroxy-2-methylphenyl)-7,7-dimethyl-7,8-dihydro-5H-pyrano[4,3-b]pyridin-2-yl)-2,6-diazaspiro[3,4]octan-2-yl)-2-propen-1-one]: the IC50 was 0.053 µM against KRAS G12C (setting [3]); 0.058 µM in test [1] (Homo sapiens, MIA PaCa-2, 72 h); > 5 µM in test [2] (Homo sapiens, A549, 72 h).
As for `C=CC(=O)N1CC2(CCN(c3nc4c(c(-c5ncccc5C)c3C#N)CCC(c3scnc3C)=C4)C2)C1` (single isomer, unassigned) [Example 23-26, (M)-4-(3-methyl-2-pyridinyl)-7-(4-methyl-1,3-thiazol-5-yl)-2-(2-(2-propenoyl)-2,6-diazaspiro[3.4]octan-6-yl)-5,6-dihydro-3-quinolinecarbonitrile], the IC50 was 0.551 µM against KRAS G12C, 1.69 µM in test [1] (72 h) and 13 µM in test [2] (72 h).
Turning to `C=CC(=O)N1CC2(CCN(c3nc4c(c(-c5cc(O)ccc5C)c3C#N)[C@H]3CC[C@@H]4C3)C2)C1` (stereo in doubt) [Example 14-9, (1R,8S)-6-(5-hydroxy-2-methylphenyl)-4-(2-(2-propenoyl)-2,6-diazaspiro[3.4]octan-6-yl)-3-azatricyclo[6.2.1.0^2,7]undeca-2,4,6-triene-5-carbonitrile], the IC50 at KRAS G12C (setting [3]) amounted to 0.091 µM; in test [1] (Homo sapiens, MIA PaCa-2, 72 h), 0.569 µM; in test [2] (Homo sapiens, A549, 72 h), 10.4 µM.
For the compound `C=CC(=O)N1CC2(CCN(c3nc4c(c(-c5cc(O)ccc5F)c3C#N)CCN(c3scnc3C)C4)C2)C1` [Example 21-19, 4-(2-fluoro-5-hydroxyphenyl)-7-(4-methyl-1,3-thiazol-5-yl)-2-(2-(2-propenoyl)-2.6-diazaspiro[3.4]octan-6-yl)-5,6,7,8-tetrahydro-1,7-naphthyridine-3-carbonitrile], the IC50 at KRAS G12C is 0.035 µM; in test [1] (Homo sapiens, MIA PaCa-2, 72 h), 1.17 µM; in test [2] (Homo sapiens, A549, 72 h) it was > 5 µM.
Regarding `C=CC(=O)N1CC2(CCN(c3nc4c(c(-c5cc(O)cc(C)c5Cl)c3C#N)COC(C)(C)C4)C2)C1` [Example 13-153, 4-(2-chloro-5-hydroxy-3-methylphenyl)-7,7-dimethyl-2-(2-(2-propenoyl)-2,6-diazaspiro[3.4]octan-6-yl)-7,8-dihydro-5H-pyrano[4,3-b]pyridine-3-carbonitrile], the IC50 against KRAS G12C (setting [3]) is 0.064 µM; in test [1] (Homo sapiens, MIA PaCa-2, 72 h), 0.058 µM; in test [2] (Homo sapiens, A549, 72 h) it was > 5 µM.
In the case of `C=CC(=O)N1CC2(CCN(c3nc4cc(OC(C)C)ccc4c(-c4ccccc4Cl)c3C#N)C2)C1` [Example 20-11, 4-(2-chlorophenyl)-7-(2-propanyloxy)-2-(2-(2-propenoyl)-2,6-diazaspiro[3.4]octan-6-yl)-3-quinolinecarbonitrile], the IC50 against KRAS G12C is 0.834 µM; in test [1] (Homo sapiens, MIA PaCa-2, 72 h), 3.1 µM; in test [2] (Homo sapiens, A549, 72 h), 8.81 µM.
For the compound `C=CC(=O)N1CC2(CCN(c3nc4c(c(-c5c(C)ccc6[nH]ncc56)c3C)CCN(C3COC3)C4)C2)C1` [Example 18-14, 1-(6-(3-methyl-4-(5-methyl-1H-indazol-4-yl)-7-(3-oxetanyl)-5,6,7,8-tetrahydro-1,7-naphthyridin-2-yl)-2,6-diazaspiro[3.4]octan-2-yl)-2-propen-1-one], the IC50 is 0.376 µM against KRAS G12C; 0.167 µM in test [1] (Homo sapiens, MIA PaCa-2, 72 h); > 25 µM in test [2] (Homo sapiens, A549, 72 h).
Consider `C=CC(=O)N1CC2(CCN(c3nc4cc(-c5ccnn5C)ccc4c(-c4ccccc4Cl)c3C)C2)C1` [Example 16-1, 1-(6-(4-(2-chlorophenyl)-3-methyl-7-(1-methyl-1H-pyrazol-5-yl)quinolin-2-yl)-2,6-diazaspiro[3.4]octan-2-yl)prop-2-en-1-one], for which the IC50 on KRAS G12C was 0.28 µM; in test [1] (Homo sapiens, MIA PaCa-2, 72 h), > 5 µM; in test [2] (Homo sapiens, A549, 72 h), > 5 µM.
For the compound `C=CC(=O)N1CC2(CCN(c3nc4c(c(-c5c(C)c(C)cc6cnn(C)c56)c3C#N)COC(C)(C)C4)C2)C1` (single isomer, unassigned) [Example 13-92, (P)-7,7-dimethyl-2-(2-(2-propenoyl)-2,6-diazaspiro[3.4]octan-6-yl)-4-(1,5,6-trimethyl-1H-indazol-7-yl)-7,8-dihydro-5H-pyrano[4,3-b]pyridine-3-carbonitrile], the IC50 was 0.013 µM on KRAS G12C (setting [3]); 0.009 µM in test [1] (Homo sapiens, MIA PaCa-2, 72 h); > 5 µM in test [2] (Homo sapiens, A549, 72 h).
The like results for `C=CC(=O)N1CC2(CCN(c3nc4c(c(-c5cccc6cccc(C)c56)n3)OCCC4)C2)C1` [Example 1-42, 1-(6-(4-(8-methyl-1-naphthalenyl)-7,8-dihydro-6H-pyrano[3,2-d]pyrimidin-2-yl)-2,6-diazaspiro[3,4]octan-2-yl)-2-propen-1-one] were, in that order, 0.456 µM, 5.92 µM and 22.8 µM.
On to `C=CC(=O)N1CC2(CCN(c3nc4cc(-c5scnc5C)ccc4c(-c4ccccc4C)c3C#N)C2)C1` (single isomer, unassigned) [Example 19-11, (P)-4-(2-methylphenyl)-7-(4-methyl-1,3-thiazol-5-yl)-2-(2-(2-propenoyl)-2,6-diazaspiro[3.4]octan-6-yl)-3-quinolinecarbonitrile], for which the IC50 against KRAS G12C was 0.068 µM; in test [1] (Homo sapiens, MIA PaCa-2, 72 h), 1.35 µM; in test [2] (Homo sapiens, A549, 72 h) it was > 5 µM.
Consider `C=CC(=O)N1CC2(CCN(c3nc4cc(F)ccc4c(-c4c(C)ccc5[nH]ncc45)c3C)[C@H]2C)C1` (single isomer, unassigned) [Example 2-61], for which the IC50 against KRAS G12C (setting [3]) was 0.134 µM; in test [1] (72 h), 1.32 µM; in test [2] (72 h), > 5 µM.
For `C=CC(=O)N1CC2(CCN(c3nc4cc(-c5nccn5C)ccc4c(-c4ccc(F)cc4F)c3C#N)C2)C1` [Example 20-14, 4-(2,4-difluorophenyl)-7-(1-methyl-1H-imidazol-2-yl)-2-(2-(2-propenoyl)-2,6-diazaspiro[3.4]octan-6-yl)-3-quinolinecarbonitrile], the IC50 on KRAS G12C was 0.243 µM; in test [1] (Homo sapiens, MIA PaCa-2, 72 h), 1.35 µM; in test [2] (Homo sapiens, A549, 72 h), 9.15 µM.
With `C=CC(=O)N1CC2(CCN(c3nc4c(c(-c5ccccc5F)c3C#N)CC[C@@](C)(c3scnc3C)C4)C2)C1` [Example 23-13, (7R)-4-(2-fluorophenyl)-7-methyl-7-(4-methyl-1,3-thiazol-5-yl)-2-(2-(2-propenoyl)-2,6-diazaspiro[3.4]octan-6-yl)-5,6,7,8-tetrahydro-3-quinolinecarbonitrile], the IC50 on KRAS G12C is 0.039 µM; in test [1] (Homo sapiens, MIA PaCa-2, 72 h), 0.911 µM; in test [2] (Homo sapiens, A549, 72 h) it was > 5 µM.
On to `C=CC(=O)N1CC2(CCN(c3nc4c(c(-c5ccccc5Cl)c3C#N)CCC(c3scnc3C)=C4)C2)C1` (single isomer, unassigned) [Example 23-41, (M)-4-(2-chlorophenyl)-7-(4-methyl-1,3-thiazol-5-yl)-2-(2-(2-propenoyl)-2,6-diazaspiro[3.4]octan-6-yl)-5,6-dihydro-3-quinolinecarbonitrile], for which the IC50 at KRAS G12C was 0.325 µM; in test [1] (72 h) it was 2.39 µM; in test [2] (Homo sapiens, A549, 72 h) it was 5.77 µM.
With `C=CC(=O)N1CC2(CCN(c3nc4c(c(-c5c(F)cccc5CO)c3C#N)C[C@H]3C[C@@H]4C3(C)C)C2)C1` [Example 2-73, (1R,9R)-6-(2-fluoro-6-(hydroxymethyl)phenyl)-10,10-dimethyl-4-(2-(2-propenoyl)-2,6-diazaspiro[3.4]octan-6-yl)-3-azatricyclo[7.1.1.0^2,7]undeca-2,4,6-triene-5-carbonitrile], the concentration for half-maximal inhibition (IC50) on KRAS G12C (setting [3]) is 0.228 µM; in test [1] (Homo sapiens, MIA PaCa-2, 72 h), 1.94 µM; in test [2] (Homo sapiens, A549, 72 h), > 5 µM.
Consider `C=CC(=O)N1CC2(CCN(c3nc4cc(OC)ccc4c(-c4c(C)ccc5[nH]ncc45)c3C#N)C2)C1` [Example 1-45, 7-methoxy-4-(5-methyl-1H-indazol-4-yl)-2-(2-(2-propenoyl)-2,6-diazaspiro[3.4]octan-6-yl)-3-quinolinecarbonitrile], for which the IC50 against KRAS G12C (setting [3]) is 0.032 µM; in test [1] (Homo sapiens, MIA PaCa-2, 72 h), 0.332 µM; in test [2] (Homo sapiens, A549, 72 h) it was > 5 µM.
With `C=CC(=O)N1CC2(CCN(c3nc4c(c(-c5cc(O)cc6ccccc56)c3C#N)[C@H]3CC[C@@H]4C3)C2)C1` (single isomer, unassigned) [Example 2-39], the IC50 on KRAS G12C (setting [3]) is 0.009 µM; in test [1] (72 h), 0.068 µM; in test [2] (72 h), > 5 µM.
For `C=CC(=O)N1CC2(CCN(c3nc4cc(-c5scnc5C)cnc4c(-c4ccc(F)cc4)c3C#N)C2)C1` [Example 19-8, 4-(4-fluorophenyl)-7-(4-methyl-1,3-thiazol-5-yl)-2-(2-(2-propenoyl)-2,6-diazaspiro[3.4]octan-6-yl)-1,5-naphthyridine-3-carbonitrile], the half-maximal inhibitory concentration (IC50) stood at 0.28 µM on KRAS G12C; 0.32 µM in test [1] (Homo sapiens, MIA PaCa-2, 72 h); 11.2 µM in test [2] (Homo sapiens, A549, 72 h).
